This note sets out measurements from PMC5791972 (PLoS ONE, 2018).

Read-outs that look alike come from different tables or passages of the source.

In assay [1] the target is T1, α1A (h) (Homo sapiens, UniProt P35348).
T1 construct: expressed in transfected cells; host or cells: CHO cells
T1 sequence (P35348 1-466): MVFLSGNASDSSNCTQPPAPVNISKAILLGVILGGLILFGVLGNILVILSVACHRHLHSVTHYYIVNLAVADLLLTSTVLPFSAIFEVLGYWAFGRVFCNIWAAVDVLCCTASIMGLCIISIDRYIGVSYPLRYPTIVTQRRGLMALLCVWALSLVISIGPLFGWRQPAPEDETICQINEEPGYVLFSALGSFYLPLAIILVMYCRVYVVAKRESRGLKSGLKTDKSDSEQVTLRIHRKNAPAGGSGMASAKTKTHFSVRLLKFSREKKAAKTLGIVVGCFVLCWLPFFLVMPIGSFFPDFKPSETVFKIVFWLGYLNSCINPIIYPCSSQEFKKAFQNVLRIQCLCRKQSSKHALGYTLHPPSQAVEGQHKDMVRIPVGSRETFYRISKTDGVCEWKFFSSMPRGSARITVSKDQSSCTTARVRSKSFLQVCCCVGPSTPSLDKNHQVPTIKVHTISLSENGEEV
In kind it is binding. Conditions: 1 h, 1.0E-06 M.

Assay [2] concerns the target T2, AR (h) (Homo sapiens, UniProt P10275, T878A).
T2 construct: AR (h) LNCaP cells [3H]methyltrienolone; host or cells: LNCaP cells (cytosol)
T2 sequence (P10275 1-920 T878A): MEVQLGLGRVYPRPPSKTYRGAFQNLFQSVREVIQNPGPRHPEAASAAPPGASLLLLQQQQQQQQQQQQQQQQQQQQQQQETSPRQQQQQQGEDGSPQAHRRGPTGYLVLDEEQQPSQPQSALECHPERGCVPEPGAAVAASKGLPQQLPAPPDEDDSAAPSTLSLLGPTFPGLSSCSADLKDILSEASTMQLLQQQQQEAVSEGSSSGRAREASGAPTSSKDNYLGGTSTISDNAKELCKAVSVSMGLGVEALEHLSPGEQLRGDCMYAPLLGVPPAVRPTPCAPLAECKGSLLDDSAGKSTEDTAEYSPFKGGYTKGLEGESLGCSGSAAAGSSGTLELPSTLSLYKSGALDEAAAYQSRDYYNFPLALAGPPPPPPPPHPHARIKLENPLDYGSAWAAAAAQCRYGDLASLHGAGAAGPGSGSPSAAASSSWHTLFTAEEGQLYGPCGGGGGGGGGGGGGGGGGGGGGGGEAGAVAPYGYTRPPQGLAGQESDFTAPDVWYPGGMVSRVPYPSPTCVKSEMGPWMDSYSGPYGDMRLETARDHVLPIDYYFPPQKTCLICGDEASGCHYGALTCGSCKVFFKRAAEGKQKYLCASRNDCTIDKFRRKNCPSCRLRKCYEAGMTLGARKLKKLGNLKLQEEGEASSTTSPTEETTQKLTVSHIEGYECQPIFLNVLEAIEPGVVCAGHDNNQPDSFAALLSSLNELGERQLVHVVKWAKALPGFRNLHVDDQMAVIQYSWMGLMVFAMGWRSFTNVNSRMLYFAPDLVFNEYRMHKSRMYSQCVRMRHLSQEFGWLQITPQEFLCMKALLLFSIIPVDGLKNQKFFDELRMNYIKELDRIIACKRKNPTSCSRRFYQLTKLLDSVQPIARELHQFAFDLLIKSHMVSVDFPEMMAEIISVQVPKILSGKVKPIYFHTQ
In kind it is binding. The conditions noted are these: 1.0E-06 M.

Assay [3] deals with 5-HT1D (Rattus norvegicus, UniProt P28565). Nature of the assay: biochemical.
Assay [4] addresses T3, ACE (h) (Homo sapiens, UniProt P12821).
T3 construct: Cerep (contract assay)
Nature of the assay: enzyme assay. In kind it is biochemical. Conditions: 1.0E-06 M.

Assay [5] has as its target T4, hTRPC1/hTRPC5 (Homo sapiens, UniProt Q9UL62).
T4 construct: The cDNAs for various full-length ion channels were subcloned into pcDNA5/TO; expressed in transfected cells; host or cells: heterologous co-expression
Nature of the assay: Whole-cell manual patch clamp. In kind it is cell-based. (Patch clamp records ionic current or voltage across a cell membrane.)

Assay [6] has as its target T5, hTRPC4 (Homo sapiens, UniProt Q9UBN4).
T5 construct: The cDNAs for various full-length ion channels were subcloned into pcDNA5/TO; expressed in transfected cells; M1R co-expressed in the calcium assay, M2R in patch clamp
Nature of the assay: Whole-cell manual patch clamp. Conditions: 10 µM carbachol /M1R. In kind it is cell-based.

Assay [7] relates to α1 (non-selective). In kind it is binding, rat. The conditions noted are these: 1.0E-06 M.
The target of assay [8] is TRPM8 (Homo sapiens, UniProt Q7Z2W7). Nature of the assay: cell-based.
Assay [9] deals with Abl kinase (h) (Homo sapiens, UniProt P00519). Nature of the assay: biochemical. Conditions: 1.0E-06 M.
Assay [10] concerns the target T6, caspase-3 (h) (Homo sapiens, UniProt P42574).
T6 construct: Cerep (contract assay); host or cells: E. coli
T6 sequence (P42574 29-175 limits assumed): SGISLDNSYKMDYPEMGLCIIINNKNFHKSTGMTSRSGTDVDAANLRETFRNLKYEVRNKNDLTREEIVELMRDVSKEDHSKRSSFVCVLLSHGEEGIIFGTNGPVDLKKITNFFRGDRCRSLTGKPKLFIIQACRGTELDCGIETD
T6 sequence (P42574 176-277 limits assumed): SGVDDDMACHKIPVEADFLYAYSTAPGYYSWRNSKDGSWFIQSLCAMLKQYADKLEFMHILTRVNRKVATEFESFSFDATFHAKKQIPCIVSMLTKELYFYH
Nature of the assay: biochemical. The conditions noted are these: 1.0E-06 M.

Assay [11] has as its target T7, MCH1 (h) (Homo sapiens, UniProt Q99705).
T7 construct: host or cells: CHO cells
In kind it is binding. Conditions: 1.0E-06 M.

In assay [12] the target is T8, mTRPC4 (Mus musculus, UniProt Q9QUQ5).
T8 construct: The cDNAs for various full-length ion channels were subcloned into pcDNA5/TO; expressed in transfected cells
Nature of the assay: Whole-cell manual patch clamp. In kind it is cell-based. Conditions: 10 µM carbachol /M1R.

Assay [13] concerns the target 5-HT6 (h) (Homo sapiens, UniProt P50406). In words: biochemical.

T7 sequence (Q99705 whole entry): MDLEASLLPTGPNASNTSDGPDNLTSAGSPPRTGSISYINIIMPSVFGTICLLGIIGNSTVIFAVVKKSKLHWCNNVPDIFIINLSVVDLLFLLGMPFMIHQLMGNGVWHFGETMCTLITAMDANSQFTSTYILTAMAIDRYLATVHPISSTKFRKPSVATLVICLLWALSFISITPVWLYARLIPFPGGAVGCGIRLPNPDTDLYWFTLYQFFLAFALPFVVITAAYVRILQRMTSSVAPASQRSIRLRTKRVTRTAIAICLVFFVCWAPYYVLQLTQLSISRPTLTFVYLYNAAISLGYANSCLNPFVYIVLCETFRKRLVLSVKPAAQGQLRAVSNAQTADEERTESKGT
Sequence of 5-HT6 (h) (P50406 whole entry): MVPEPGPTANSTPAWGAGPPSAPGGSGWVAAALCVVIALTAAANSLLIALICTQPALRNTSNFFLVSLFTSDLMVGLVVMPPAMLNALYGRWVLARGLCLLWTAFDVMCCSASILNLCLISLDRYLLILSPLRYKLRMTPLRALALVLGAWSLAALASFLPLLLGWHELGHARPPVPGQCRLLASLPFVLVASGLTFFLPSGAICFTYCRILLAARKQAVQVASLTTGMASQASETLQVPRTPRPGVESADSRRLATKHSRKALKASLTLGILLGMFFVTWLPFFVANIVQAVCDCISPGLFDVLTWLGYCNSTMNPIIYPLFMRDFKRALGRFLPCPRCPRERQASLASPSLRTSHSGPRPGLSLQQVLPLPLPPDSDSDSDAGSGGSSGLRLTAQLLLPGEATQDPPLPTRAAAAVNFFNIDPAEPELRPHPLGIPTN
Sequence of Abl kinase (h) (P00519 whole entry): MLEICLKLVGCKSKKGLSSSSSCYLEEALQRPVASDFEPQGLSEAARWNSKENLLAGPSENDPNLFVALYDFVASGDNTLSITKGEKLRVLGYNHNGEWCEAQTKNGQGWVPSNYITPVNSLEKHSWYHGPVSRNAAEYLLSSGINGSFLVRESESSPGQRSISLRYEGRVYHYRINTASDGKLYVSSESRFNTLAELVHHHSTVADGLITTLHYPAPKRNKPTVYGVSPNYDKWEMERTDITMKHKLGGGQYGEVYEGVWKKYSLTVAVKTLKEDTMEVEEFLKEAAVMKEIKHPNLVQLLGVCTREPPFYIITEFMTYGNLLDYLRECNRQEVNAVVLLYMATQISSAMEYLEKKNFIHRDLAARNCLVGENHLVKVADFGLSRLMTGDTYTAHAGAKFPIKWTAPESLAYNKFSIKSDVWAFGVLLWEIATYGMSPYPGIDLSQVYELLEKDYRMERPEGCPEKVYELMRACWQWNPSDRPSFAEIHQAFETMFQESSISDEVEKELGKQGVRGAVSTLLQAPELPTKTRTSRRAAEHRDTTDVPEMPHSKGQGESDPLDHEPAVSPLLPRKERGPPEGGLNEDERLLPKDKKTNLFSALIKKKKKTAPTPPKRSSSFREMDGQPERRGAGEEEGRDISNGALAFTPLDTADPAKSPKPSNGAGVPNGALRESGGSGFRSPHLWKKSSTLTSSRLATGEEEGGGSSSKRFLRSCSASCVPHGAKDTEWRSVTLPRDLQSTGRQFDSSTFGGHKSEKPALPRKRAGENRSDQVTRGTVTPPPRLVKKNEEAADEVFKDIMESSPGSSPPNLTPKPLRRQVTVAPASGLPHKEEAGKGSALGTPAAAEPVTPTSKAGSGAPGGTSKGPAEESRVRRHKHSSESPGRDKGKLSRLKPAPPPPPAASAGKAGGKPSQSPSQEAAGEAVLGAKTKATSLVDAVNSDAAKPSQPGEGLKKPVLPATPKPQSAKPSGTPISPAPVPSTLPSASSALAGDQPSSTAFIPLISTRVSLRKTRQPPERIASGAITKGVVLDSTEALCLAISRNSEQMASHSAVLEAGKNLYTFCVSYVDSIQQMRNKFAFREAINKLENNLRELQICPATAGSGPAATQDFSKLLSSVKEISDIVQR
T3 sequence (P12821 30-1306): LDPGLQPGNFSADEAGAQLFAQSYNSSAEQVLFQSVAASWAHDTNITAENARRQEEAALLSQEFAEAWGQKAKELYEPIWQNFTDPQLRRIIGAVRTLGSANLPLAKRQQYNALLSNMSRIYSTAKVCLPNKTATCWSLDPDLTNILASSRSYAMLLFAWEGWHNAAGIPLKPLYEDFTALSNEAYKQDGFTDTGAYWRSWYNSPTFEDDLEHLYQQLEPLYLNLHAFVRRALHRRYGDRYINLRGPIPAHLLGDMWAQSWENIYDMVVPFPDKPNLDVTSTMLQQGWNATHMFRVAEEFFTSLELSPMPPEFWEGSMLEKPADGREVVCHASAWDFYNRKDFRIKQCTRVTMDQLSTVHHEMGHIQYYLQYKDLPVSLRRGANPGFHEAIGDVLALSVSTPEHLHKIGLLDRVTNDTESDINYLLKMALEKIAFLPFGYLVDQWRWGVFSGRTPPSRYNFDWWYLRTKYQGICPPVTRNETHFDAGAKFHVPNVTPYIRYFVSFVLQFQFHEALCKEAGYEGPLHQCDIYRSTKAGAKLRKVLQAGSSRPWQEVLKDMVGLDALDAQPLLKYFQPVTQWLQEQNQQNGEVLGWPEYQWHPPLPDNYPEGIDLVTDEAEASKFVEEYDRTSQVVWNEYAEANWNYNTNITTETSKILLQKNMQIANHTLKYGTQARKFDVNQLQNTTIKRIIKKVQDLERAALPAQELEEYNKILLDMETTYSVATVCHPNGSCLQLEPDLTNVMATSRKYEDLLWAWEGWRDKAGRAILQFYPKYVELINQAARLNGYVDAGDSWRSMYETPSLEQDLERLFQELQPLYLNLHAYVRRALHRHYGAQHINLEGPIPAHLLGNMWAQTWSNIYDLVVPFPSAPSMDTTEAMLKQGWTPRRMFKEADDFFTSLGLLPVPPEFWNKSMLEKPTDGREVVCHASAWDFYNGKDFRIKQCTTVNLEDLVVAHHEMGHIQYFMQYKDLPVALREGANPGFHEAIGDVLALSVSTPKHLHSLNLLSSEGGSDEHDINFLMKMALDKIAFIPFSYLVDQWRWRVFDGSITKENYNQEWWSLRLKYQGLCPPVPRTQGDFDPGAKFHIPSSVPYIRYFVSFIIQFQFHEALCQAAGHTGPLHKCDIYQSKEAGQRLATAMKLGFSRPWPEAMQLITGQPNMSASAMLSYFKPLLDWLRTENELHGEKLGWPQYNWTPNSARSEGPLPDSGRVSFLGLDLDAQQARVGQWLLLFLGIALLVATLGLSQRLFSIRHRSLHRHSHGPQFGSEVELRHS
Sequence of 5-HT1D (P28565 whole entry): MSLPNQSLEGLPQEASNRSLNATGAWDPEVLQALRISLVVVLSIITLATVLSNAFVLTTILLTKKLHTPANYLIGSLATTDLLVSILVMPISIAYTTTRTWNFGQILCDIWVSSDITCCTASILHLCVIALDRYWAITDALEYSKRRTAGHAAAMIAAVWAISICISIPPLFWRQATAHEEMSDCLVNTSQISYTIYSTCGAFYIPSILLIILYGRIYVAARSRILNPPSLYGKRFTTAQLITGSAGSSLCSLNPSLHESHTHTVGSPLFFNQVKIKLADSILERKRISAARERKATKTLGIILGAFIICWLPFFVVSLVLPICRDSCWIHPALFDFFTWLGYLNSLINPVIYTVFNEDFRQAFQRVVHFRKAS
Sequence of TRPM8 (Q7Z2W7 whole entry, species assumed): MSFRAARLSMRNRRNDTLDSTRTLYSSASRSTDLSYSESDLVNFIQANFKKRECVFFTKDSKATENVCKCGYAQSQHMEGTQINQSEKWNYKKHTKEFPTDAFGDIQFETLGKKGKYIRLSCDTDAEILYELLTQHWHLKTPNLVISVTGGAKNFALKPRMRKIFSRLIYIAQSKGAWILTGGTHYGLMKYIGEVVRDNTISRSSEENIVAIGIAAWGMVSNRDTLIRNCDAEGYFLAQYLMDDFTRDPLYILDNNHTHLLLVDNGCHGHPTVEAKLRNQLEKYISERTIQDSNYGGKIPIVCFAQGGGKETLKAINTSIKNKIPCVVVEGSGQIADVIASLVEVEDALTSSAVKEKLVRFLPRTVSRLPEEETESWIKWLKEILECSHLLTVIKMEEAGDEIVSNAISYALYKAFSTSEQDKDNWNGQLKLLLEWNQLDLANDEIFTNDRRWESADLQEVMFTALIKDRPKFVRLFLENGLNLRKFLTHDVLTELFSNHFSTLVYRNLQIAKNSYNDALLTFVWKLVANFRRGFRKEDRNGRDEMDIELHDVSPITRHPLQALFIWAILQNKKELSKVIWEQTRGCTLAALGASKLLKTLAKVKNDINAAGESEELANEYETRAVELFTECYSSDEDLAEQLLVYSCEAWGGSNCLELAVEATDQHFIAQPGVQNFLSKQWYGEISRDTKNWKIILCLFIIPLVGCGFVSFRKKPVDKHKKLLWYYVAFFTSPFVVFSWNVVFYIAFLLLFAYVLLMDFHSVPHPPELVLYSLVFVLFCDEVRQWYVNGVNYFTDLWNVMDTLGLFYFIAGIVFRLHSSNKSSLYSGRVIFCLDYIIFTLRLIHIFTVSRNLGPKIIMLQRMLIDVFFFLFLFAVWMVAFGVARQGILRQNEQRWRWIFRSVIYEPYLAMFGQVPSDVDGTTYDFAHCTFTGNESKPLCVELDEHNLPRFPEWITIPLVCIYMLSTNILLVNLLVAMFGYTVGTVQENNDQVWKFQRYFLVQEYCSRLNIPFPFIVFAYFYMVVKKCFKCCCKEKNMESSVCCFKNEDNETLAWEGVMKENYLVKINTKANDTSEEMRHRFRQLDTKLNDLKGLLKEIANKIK

As to `Cn1c(=O)n(CCCO)c(=O)c2c1nc(Oc1cccc(Cl)c1)n2Cc1ccc(Cl)cc1` [HC-070], the inhibition (as a rule, the change of the read-out against control, counted positive when it falls) at 1 µM is -6.1% in [1] (read-out: % Inhibition 1st); 3.1% in [1] (read-out: % Inhibition 2nd); -1.5% in assay [1] (read-out: % Inhibition Mean); 11.1% in assay [2] (read-out: % Inhibition 1st); 3.2% in assay [2] (read-out: % Inhibition 2nd); 7.1% in assay [2] (read-out: % Inhibition Mean).

For the compound `Cn1c(=O)n(CCCO)c(=O)c2c1nc(Oc1cccc(OC(F)(F)F)c1)n2Cc1ccc(Cl)cc1` [HC-608], the inhibition at 1 µM in assay [3] (read-out: % Inhibition 1st) was -4.2%; in assay [3] (read-out: % Inhibition 2nd), -8.8%; in assay [3] (read-out: % Inhibition Mean), -6.5%; in assay [4] (read-out: % Inhibition 1st), 0%; in [4] (read-out: % Inhibition 2nd), 6%; in [4] (read-out: % Inhibition Mean) it was 3%. Also, the inhibition at 1 µM came to 11.4% in assay [9] (read-out: % Inhibition 1st); 10.2% in [9] (read-out: % Inhibition 2nd); 10.8% in [9] (read-out: % Inhibition Mean); 3.7% in assay [10] (read-out: % Inhibition 1st); 2.3% in assay [10] (read-out: % Inhibition 2nd); 3% in assay [10] (read-out: % Inhibition Mean). The inhibition at 1 µM was 7.9% in assay [11] (read-out: % Inhibition 1st); -27.2% in assay [11] (read-out: % Inhibition 2nd); -9.6% in [11] (read-out: % Inhibition Mean); -5.1% in [13] (read-out: % Inhibition 1st); 7.3% in assay [13] (read-out: % Inhibition 2nd); 1.1% in assay [13] (read-out: % Inhibition Mean). The IC50 (in general, the concentration needed to halve the response being measured) in assay [5] (20 μM carbachol/M1R) is approximately 4.7 nM; in [5] (La3+ (80 μM)) it was approximately 1.4 nM; in [6] it was approximately 0.17 nM; in [8], more than 1640 nM; in assay [12], approximately 0.45 nM. Besides, the “% Inhibition 1st” value in assay [7] was -2.8%. Moreover, the “% Inhibition 2nd” value in assay [7] stood at 1.1%. In assay [7], the “% Inhibition Mean” value is -0.8%.
